Results as given in publication PMC9574863 (Journal of Medicinal Chemistry, 2022).
Like-named read-outs stand apart in the source and are kept apart here.

How the values were obtained:
[1] = pH 7; cited from earlier work
[2] = tested on: U937 cells; conditions: read-out: differentiation EC50 U937 (C.L. 95%); U937, CD14/CD11b expression
Text: The differentiation pathway was monitored by analyzing the expression of CD11b (APC-conjugated BD Bioscience San Jose, CA, USA) or CD14 (APC-conjugated Beckam Coulter CA, USA) via flow cytometry analysis. […] Samples were acquired on an FACSVerse (BD-Biosciences San Jose CA) and dead cells were excluded from the analyses, according to the use of propidium iodide (Sigma-Aldrich, Milan, Italy). Data were processed using Kaluza software version 1.2 (Beckman Coulter Fullerton, CA).

[3] = tested on: U937 cells; conditions: read-out: apoptosis EC50 U937 (C.L. 95%); U937, annexin V, 3 days

Row | Structure (SMILES) | solubility [1] [µM] | EC50 [2] [nM] | EC50 [3] [nM]
1 | CCn1c(CO)nn(-c2cc(O[C@@H](C)C(F)(F)F)c(C(=O)Nc3c(F)cccc3Cl)cc2F)c1=O [BAY2402234] | < 4 | – | –
2 | Cc1c(-c2ccc(-c3ccccc3F)cc2)nc2ccc(F)cc2c1C(=O)O [Brequinar] | – | 214 | 262
